Measured values taken from ChEMBL document CHEMBL5550137 (Bioorg Med Chem Lett, 2024).
Values after ≈ are worked out from the molar mass of the structure shown.

Test system: NCI-H460
Test: Anti-cancer activity of human PTX-resistant NCI-H460 cells incubated for 48 hrs by CCK8 assay
Type: functional, cell-based
Conditions: NCI-H460, 48 h; call rule not given here

Structure (SMILES)	IC50 [nM]
CC(=O)O[C@H]1C(=O)[C@@]2(C)[C@H]([C@H](OC(=O)c3ccccc3)[C@]3(O)C[C@H](OC(=O)[C@H](O)[C@@H](NC(=O)c4ccccc4)c4ccccc4)C(C)=C1C3(C)C)[C@]1(OC(C)=O)CO[C@@H]1C[C@@H]2O [PACLITAXEL]	633

Test system: not listed separately
Test: Solubility in water by HPLC-UV analysis
Type: physicochemical
Conditions: not given

Structure (SMILES)	solubility [µg/mL]
Cl.O=C1c2cccc3c(Br)ccc(c23)C(=O)N1Cc1cncnc1	262
CCN1C(=O)c2cccc3c(Br)ccc(c23)C1=O	103 (≈ 340 µM)

Test system: HEK-293T
Test: Cytotoxicity against HEK293T cells expressing AhR/luc incubated for 48 hrs by CCK8 assay
Type: toxicity, cell-based
Conditions: human

Structure (SMILES)	Activity
O=C1c2cccc3c(Br)ccc(c23)C(=O)N1Cc1cncnc1	Non-Toxic

Target: T1, Cytochrome P450 1B1 (Homo sapiens, UniProt Q16678)
T1 sequence (Q16678 whole entry): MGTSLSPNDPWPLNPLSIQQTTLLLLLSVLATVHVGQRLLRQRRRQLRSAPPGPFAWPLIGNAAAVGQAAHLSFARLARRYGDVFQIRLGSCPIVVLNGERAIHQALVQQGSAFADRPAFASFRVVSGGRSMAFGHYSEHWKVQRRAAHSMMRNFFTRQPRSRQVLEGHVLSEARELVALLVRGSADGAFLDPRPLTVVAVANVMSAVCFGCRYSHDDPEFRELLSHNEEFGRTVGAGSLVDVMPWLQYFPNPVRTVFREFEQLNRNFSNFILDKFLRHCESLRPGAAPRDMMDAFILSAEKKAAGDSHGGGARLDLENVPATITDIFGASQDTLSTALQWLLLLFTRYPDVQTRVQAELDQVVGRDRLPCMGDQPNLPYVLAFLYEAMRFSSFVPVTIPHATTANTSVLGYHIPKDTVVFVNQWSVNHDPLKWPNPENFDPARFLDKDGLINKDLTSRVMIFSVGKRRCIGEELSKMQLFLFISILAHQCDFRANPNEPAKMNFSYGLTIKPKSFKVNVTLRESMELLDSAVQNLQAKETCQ
Test: Inhibition of recombinant human CYP1B1 using 7-ER as substrate in presence of NADPH by fluorescence based assay
Conditions: not given

Structure (SMILES)	IC50 [nM]
O=C1c2cccc3c(Br)ccc(c23)C(=O)N1CC1CCCC1	11.7
O=C1c2cccc3c(Br)ccc(c23)C(=O)N1Cc1nccs1	36.7
Nc1ccc2c3c(cccc13)C(=O)N(Cc1cncnc1)C2=O	67.1
O=C1c2cccc3c(Br)ccc(c23)C(=O)N1CC1Oc2ccccc2O1	12
O=C1c2cccc3c(Br)ccc(c23)C(=O)N1Cc1ccncn1	22.7
O=C1c2cccc3c(Br)ccc(c23)C(=O)N1Cc1c[nH]cn1	173
O=C1c2cccc3c(O)ccc(c23)C(=O)N1Cc1cncnc1	56.6
O=C1c2cccc3c(Br)ccc(c23)C(=O)N1Cc1ccc2ncccc2c1	30
O=C1c2cccc3c(Br)ccc(c23)C(=O)N1CCCCc1ccccc1	57.3
O=C1c2cccc3c(Br)ccc(c23)C(=O)N1Cc1cncnc1	0.04
O=C1c2cccc3c(Br)ccc(c23)C(=O)N1CC1CCC1	3.64
O=C1c2cccc3c(Br)ccc(c23)C(=O)N1CCc1ccccc1	5.36
O=C1c2cccc3c(Br)ccc(c23)C(=O)N1Cc1cccs1	3.42
O=C1c2cccc3c(Br)ccc(c23)C(=O)N1CC1CC1	19.2
O=C1c2cccc3c(Br)ccc(c23)C(=O)N1Cc1cccnc1	1.81
O=C1c2cccc3c(Br)ccc(c23)C(=O)N1Cc1ccccc1	1.95
CCN1C(=O)c2cccc3cccc(c23)C1=O	605

Structure (SMILES)	IC50 [nM]
O=C1c2cccc3c(Br)ccc(c23)C(=O)N1Cc1ccon1	42.3
CCN1C(=O)c2cccc3cc(Br)cc(c23)C1=O	5.32
O=C1c2cccc3c(Br)ccc(c23)C(=O)N1Cc1ccccn1	148
O=C1c2cccc3c(Br)ccc(c23)C(=O)N1Cc1ccncc1	1.42
O=C1c2cccc3c(Br)ccc(c23)C(=O)N1Cc1cn[nH]c1	0.21
O=C1c2cccc3c(Br)ccc(c23)C(=O)N1Cc1ncccn1	91.7
O=C1c2cccc3cccc(c23)C(=O)N1Cc1cncnc1	221
O=C1c2cccc3c(Br)ccc(c23)C(=O)N1CC1CN(Cc2ccccc2)CCO1 (stereo unspecified)	> 1000
CCN1C(=O)c2cccc3c(O)ccc(c23)C1=O	> 1000
O=C1c2cccc3c(Br)ccc(c23)C(=O)N1Cc1cnccn1	156
O=C1c2cccc3c(Br)ccc(c23)C(=O)N1Cc1cc[nH]n1	17.6
O=C1c2cccc3c(Br)ccc(c23)C(=O)N1CC1CCCCC1	7.99
O=C1c2cccc3c(Br)ccc(c23)C(=O)N1CCCc1ccccc1	16.8
O=C1c2cccc3c(Br)ccc(c23)C(=O)N1Cc1ncco1	31
CCN1C(=O)c2cccc3c(Br)ccc(c23)C1=O	5.63
CCN1C(=O)c2cccc3ccc(Br)c(c23)C1=O	3.52
O=C1c2cccc3c(Br)ccc(c23)C(=O)N1Cc1ccc[nH]1	0.39

Target: T1, Cytochrome P450 1B1
Test: Inhibition of recombinant human CYP1B1 using 7-ER as substrate measured after 33 mins in presence of NADPH by fluorescence based assay
Conditions: 0.55 h

Structure (SMILES)	inhibition (INH)
O=C1c2cccc3c(Br)ccc(c23)C(=O)N1Cc1cncnc1	Not Active

Target: T1, Cytochrome P450 1B1
Test: Inhibition of human CYP1B1 over-expressed in CHO cells preincubated for 3 hrs followed media replacement containing estradiol without compound measured after 3 hrs
Type: cell-based
Conditions: not given

Structure (SMILES)	IC50 [nM]
O=C1c2cccc3c(Br)ccc(c23)C(=O)N1Cc1cncnc1	0.47

Target: T1, Cytochrome P450 1B1
Test: Mixed inhibition of recombinant human CYP1B1 using 7-ER as substrate in presence of NADPH by fluorescence based assay
Conditions: not given

Structure (SMILES)	Ki [nM]
O=C1c2cccc3c(Br)ccc(c23)C(=O)N1Cc1cncnc1	0.0217
